Measurements as given in patent publication US20060058390A1 (priority 2004, published 2006).
≈ marks a conversion by molar mass, not a printed value.

How the values were obtained:
in vivo = conditions: for AUC(0-inf): AUC(0-inf) of D-Methionine; for concentration at 0 h: 0.00 h (predose); for concentration at 0.5 h: 0.50 h; for Cmax: Cmax of D-Methionine
Protocol: (§1) Twenty-six male Sprague-Dawley rats weighing approximately 200 to 300 g were used for the study. The jugular vein of six animals were cannulated and the rest of the animals were used without any further preparation.
(§2) Dosing was conducted on two occasions. […] The drug was prepared in a suspension formulation in accordance with the present invention. The blood samples (approximately 0.5 mL/sample) were collected from each animal at predose, 15, 30 minutes, 1, 2, 4 and 6 hours postdose into microtainer tubes containing lithium heparin as an anticoagulant. Replacement blood was infused into each animal following each blood draw. […] The drug was prepared in a solution formulation. […] Blood samples were collected from each animal via the orbital sinus at predose, 2, 15, 30 minutes, 1, 2, 4 and 6 hours postdose. Each animal was bled twice. The blood was centrifuged immediately and the resulting plasma in tubes was flash frozen in liquid nitrogen and stored at approximately −70° C. until analysis.
L-Methinione can also be detected under the same HPLC conditions.
Descriptive pharmacokinetic parameters were determined by standard model independent methods (Gibaldi, M. and Perrier, D. Pharmacokinetics, Second Edition, Marcel Dekker, Inc., New York, 1982) based on the mean plasma concentration-time data. The plasma concentrations were rounded to one decimal place before the calculation. Plasma samples with concentrations below the quantifiable limit (BQL) were assigned values of zero for the calculation of mean plasma concentration.

[1] = humans, cited from earlier work
[2] = tested on: oxidative stress-induced ototoxicity and nephrotoxicity; conditions: in vivo; cited from earlier work
[3] = tested on: cisplatin induced hair cell loss; conditions: rat model; cited from earlier work
[4] = D-methionine IV 150 mg/kg, PO 150 or 300 mg/kg
Protocol: as §1, §2

[5] = aqueous solutions; cited from earlier work
[6] = male, Sprague-Dawley, rat, plasma, iv, 150 mg/kg, Mean Plasma Concentrations of D-Methionine, IV 150 mg/kg, solution
[7] = male, Sprague-Dawley, rat, plasma, po, 150 mg/kg, PO 150 mg/kg, solution
[8] = male, Sprague-Dawley, rat, plasma, po, 150 mg/kg, PO 150 mg/kg, suspension
[9] = male, Sprague-Dawley, rat, plasma, po, 150 mg/kg, Mean Plasma Concentrations of D-Methionine, PO 150 mg/kg, solution
[10] = male, Sprague-Dawley, rat, plasma, po, 150 mg/kg, Mean Plasma Concentrations of D-Methionine, PO 150 mg/kg, suspension
[11] = male, Sprague-Dawley, rat, plasma, po, 300 mg/kg, PO 300 mg/kg, suspension
[12] = male, Sprague-Dawley, rat, plasma, po, 300 mg/kg, Mean Plasma Concentrations of D-Methionine, PO 300 mg/kg, suspension

For CSCC[C@@H](N)C(=O)O [D-Methionine, D-methionine], the “time point at which Cmax was observed” value (in vivo; PO 150 mg/kg, solution, first collection time point) was 30 min, the “first-pass metabolism suggested by systemic clearance” value (in vivo; from CL after IV 150 mg/kg) was “will not be subjected to extensive first-pass metabolism” and the clearance (in vivo; male, Sprague-Dawley, rat, plasma, iv, 150 mg/kg) was 9.28 mL/min/kg. For the same compound, the AUC(0-inf) (in vivo; male, Sprague-Dawley, rat, plasma, iv, 150 mg/kg, IV 150 mg/kg, solution) was 269 µg·h/mL, the concentration at 0 h (in vivo; [6]) was 0 ng/mL and the concentration at 0.03 h (in vivo; male, Sprague-Dawley, rat, plasma, iv, 150 mg/kg, Mean Plasma Concentrations of D-Methionine, IV 150 mg/kg, solution, 0.03 h) was 471 ng/mL. The concentration at 0.25 h (in vivo; [6]) was 220 ng/mL, the concentration at 0.5 h (in vivo; [6]) was 106 ng/mL and the concentration at 1 h (in vivo; [6]) was 64 ng/mL. It also gave a concentration at 2 h (in vivo; [6]) of 32.2 ng/mL, a concentration at 4 h (in vivo; [6]) of 6.13 ng/mL and a concentration at 6 h (in vivo; [6]) of 1.45 ng/mL. For the same compound, the half-life (in vivo; male, Sprague-Dawley, rat, plasma, iv, 150 mg/kg, T1/2 (terminal half-life) of D-Methionine, IV 150 mg/kg, solution) was 54 min, the bioavailability (in vivo; male, Sprague-Dawley, rat, plasma, oral, 150 mg/kg) was 61.3% and the Tmax (in vivo; male, Sprague-Dawley, rat, plasma, po, 150 mg/kg) was 30 min. The AUC(0-inf) (in vivo; [7]) was 165 µg·h/mL, the AUC(0-inf) (in vivo; [8]) was 120 µg·h/mL and the Cmax (in vivo; [7]) was 77100 ng/mL. It also gave a Cmax (in vivo; [8]) of 71100 ng/mL, a concentration at 0 h (in vivo; [9]) of 0 ng/mL and a concentration at 0.5 h (in vivo; [9]) of 77.1 ng/mL. It also gave a concentration at 1 h (in vivo; [9]) of 54.1 ng/mL, a concentration at 2 h (in vivo; [9]) of 41.7 ng/mL and a concentration at 4 h (in vivo; [9]) of 7.67 ng/mL. It also gave a concentration at 6 h (in vivo; [9]) of 3.4 ng/mL, a concentration at 12 h (in vivo; male, Sprague-Dawley, rat, plasma, po, 150 mg/kg, Mean Plasma Concentrations of D-Methionine, PO 150 mg/kg, solution, 12.00 h) of 0 ng/mL and a concentration at 0 h (in vivo; [10]) of 0 ng/mL. It also gave a concentration at 0.25 h (in vivo; [10]) of 69.5 ng/mL, a concentration at 0.5 h (in vivo; [10]) of 71.1 ng/mL and a concentration at 1 h (in vivo; [10]) of 44.1 ng/mL. For the same compound, the concentration at 2 h (in vivo; [10]) was 20.9 ng/mL, the concentration at 4 h (in vivo; [10]) was 4 ng/mL and the concentration at 6 h (in vivo; [10]) was 1.7 ng/mL. The half-life (in vivo; male, Sprague-Dawley, rat, plasma, po, 150 mg/kg, T1/2 (terminal half-life) of D-Methionine, PO 150 mg/kg, solution) was 66 min, the half-life (in vivo; male, Sprague-Dawley, rat, plasma, po, 150 mg/kg, T1/2 of D-Methionine, PO 150 mg/kg, suspension) was 60 min and the Tmax (in vivo; male, Sprague-Dawley, rat, plasma, po, 300 mg/kg) was 30 min. It also gave an AUC(0-inf) (in vivo; [11]) of 359 µg·h/mL, a Cmax (in vivo; [11]) of 175000 ng/mL and a concentration at 0 h (in vivo; [12]) of 0 ng/mL. It also gave a concentration at 0.25 h (in vivo; [12]) of 120 ng/mL, a concentration at 0.5 h (in vivo; [12]) of 175 ng/mL and a concentration at 1 h (in vivo; [12]) of 128 ng/mL. It also gave a concentration at 2 h (in vivo; [12]) of 71.4 ng/mL, a concentration at 4 h (in vivo; [12]) of 22.7 ng/mL and a concentration at 6 h (in vivo; [12]) of 5.5 ng/mL. The half-life (in vivo; male, Sprague-Dawley, rat, plasma, po, 300 mg/kg, T1/2 of D-Methionine, PO 300 mg/kg, suspension) was 66 min, the “terminal half-life (conclusion)” value (in vivo; rats, IV and PO) was “approximately one hour” and the “plasma levels compared with L-methionine” value [1] was “higher plasma levels than L-methionine”. The “fraction excreted without conversion to the L-isomer” value ([1]; except in L-methionine deprivation) was 60-70%, the “effect on oxidative stress-induced ototoxicity and nephrotoxicity associated with cisplatin” value [2] was “effectively prevent” and the “effect on cisplatin damage to the stria vascularis” value [3] was “markedly reduce cisplatin damage to the stria vascularis”. For the same compound, the “effect on cisplatin induced hair cell loss” value [3] was “prevent cisplatin induced hair cell loss”, the mortality [4] was “no mortality occurred” and the solubility [5] was 50 mg/mL (≈ 335 mM).
